For 29 compounds, IC50 results are on record in patent publication US11584755B2 (IDEAYA BIOSCIENCES, INC., priority 2017, dated 2023).

The target of this assay is hFEN1 (Homo sapiens (Human), UniProt P39748). The experiment in a line: Enzymatic IC50 assay, FAM-labeled DNA oligomer substrate, fluorescence intensity (FEN1). The assay is classed as biochemical. The following applies: hFEN1 70 pM, substrate 100 nM, reaction time 20 minutes, 23° C. On the procedure: FEN1, EXO1 or XPG enzyme was incubated with compound or vehicle (DMSO) and the FAM-labeled DNA oligomer substrate in a microtiter plate. The stop buffer contains EDTA to stop the enzymatic reaction. The plate is read for fluorescence intensity. The high control (DMSO) with high fluorescence intensity represents no inhibition of enzymatic reaction while the low control (10 μM) with low fluorescence intensity represents full inhibition of enzymatic reaction.
hFEN1, sequence (P39748 whole entry, canonical isoform): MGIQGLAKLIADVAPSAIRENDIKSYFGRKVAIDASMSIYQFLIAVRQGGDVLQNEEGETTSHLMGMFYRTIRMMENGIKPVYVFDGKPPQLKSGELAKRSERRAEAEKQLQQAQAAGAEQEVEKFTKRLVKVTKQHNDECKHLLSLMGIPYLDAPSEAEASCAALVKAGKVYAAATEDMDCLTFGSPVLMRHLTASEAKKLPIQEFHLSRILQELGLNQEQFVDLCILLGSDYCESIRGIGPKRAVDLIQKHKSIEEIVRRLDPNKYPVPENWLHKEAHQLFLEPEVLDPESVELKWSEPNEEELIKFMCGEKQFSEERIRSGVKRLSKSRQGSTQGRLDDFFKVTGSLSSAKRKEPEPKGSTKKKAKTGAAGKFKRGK
• FEN1 • hFEN1: 70 pM • Substrate: 100 nM • Reaction time: 20 minutes • EXO1 • hEXO1: 6 nM, Isoforml • Substrate: 30 nM • Reaction time: 60 minutes • XPG • hXPG: 100 nM • Substrate: 100 nM • Reaction time: 120 minutes
Annealing Buffer: 50 mM Tris-HCl, 50 mM NaCl, 1 mM DTT Assay buffer: 50 mM Tris-HCl pH 8.0, 10 mM MgCl2, 0.01% BSA, 1 mM DTT Stop buffer: 50 mM EDTA in assay buffer Temperature: 23° C. Total volume: 40 μl Controls: • 0% inhibition control: DMSO • 100% inhibition control: 10 μM (final) 5-chloro-3-hydroxy-1,3-dihydroquinazoline-2,4-dione Enzyme Reaction and Detection: • 1. Prepare 25 μM intermediate stock of the substrate by diluting SEQ ID NO:1, SEQ ID NO:2, and SEQ ID NO:3 in annealing buffer, in a PCR tube. • 2. Place the PCR tube on a heat block, heat at 95° C. for 3 minutes, then drop in 0.2° C. increments over 2 minutes, stopping at 25° C. • 3. Remove the tube and let the tube cool at room temperature. • 4. Transfer 10 μL of 3× final concentration test compounds or DMSO to the appropriate wells of a microtiter plate. • 5. Transfer 10 μL of 3× final concentration enzyme in assay buffer or assay buffer alone to the appropriate wells. • 6. Incubate the plate at room temperature for 15 minutes. • 7. Transfer 10 μL of 3× substrate in assay buffer to all the test wells. • 8. Incubate the plate at room temperature for prescribed reaction time. • 9. Centrifuge the plate at 1000 rpm for 1 minute. • 10. Transfer 10 μL of stop buffer to all the test wells. • 11. Centrifuge the plate at 1000 rpm for 1 minute. • 12. Read the plate on a plate reader.
In the case of `O=C(O)c1c(O)c(=O)n(Cc2ccccc2F)c2ccsc12` [Example 68, 4-(2-fluorobenzyl)-6-hydroxy-5-oxo-4,5-dihydrothieno[3,2-b]pyridine-7-carboxylic acid], the IC50 (usually the concentration that inhibits the measured activity by half) was in the range of 2250 to 10000 nM.

Compound `O=C(O)c1c(O)c(=O)n(CC2CCOCC2)c2ccsc12` [Example 69, 6-hydroxy-5-oxo-4-[(tetrahydro-2H-pyran-4-yl)methyl]-4,5-dihydrothieno[3,2-b]pyridine-7-carboxylic acid] showed an IC50 of 2250 to 10000 nM. In the case of `COc1ccc(Cn2c(=O)c(O)c(C(=O)O)c3sccc32)cc1OC` [Example 71, 4-(3,4-dimethoxybenzyl)-6-hydroxy-5-oxo-4,5-dihydrothieno[3,2-b]pyridine-7-carboxylic acid] it was 250 to 750 nM; in that of `Nc1ccc(Cn2c(=O)c(O)c(C(=O)O)c3sccc32)cc1Cl` [Example 73, 4-(4-amino-3-chlorobenzyl)-6-hydroxy-5-oxo-4,5-dihydrothieno[3,2-b]pyridine-7-carboxylic acid], 250 to 750 nM.

In turn, `O=C(O)c1c(O)c(=O)n(CC2COCCO2)c2ccsc12` (centres unmarked) [Example 74, 4-((1,4-dioxan-2-yl)methyl)-6-hydroxy-5-oxo-4,5-dihydrothieno[3,2-b]pyridine-7-carboxylic acid] gave an IC50 of 2250 to 10000 nM. `O=C1CC(Cn2c(=O)c(O)c(C(=O)O)c3sccc32)CN1` (centres unmarked) [Example 76, 6-hydroxy-5-oxo-4-[(5-oxopyrrolidin-3-yl)methyl]-4,5-dihydrothieno[3,2-b]pyridine-7-carboxylic acid]: the IC50 was in the range of 250 to 750 nM. Compound `O=C(O)c1c(O)c(=O)n(Cc2ccc3ccc(=O)[nH]c3c2)c2ccsc12` [Example 77, 6-hydroxy-5-oxo-4-[(2-oxo-1,2-dihydroquinolin-7-yl)methyl]-4,5-dihydrothieno[3,2-b]pyridine-7-carboxylic acid] returned an IC50 of 250 to 750 nM. In the case of `O=C(O)c1c(O)c(=O)n(CC2CCCOC2)c2ccsc12` (centres unmarked) [Example 79, 6-hydroxy-5-oxo-4-[(tetrahydro-2H-pyran-3-yl)methyl]-4,5-dihydrothieno[3,2-b]pyridine-7-carboxylic acid] it was 2250 to 10000 nM; in that of `O=C(O)c1c(O)c(=O)n(CC2COc3ccccc3C2)c2ccsc12` (centres unmarked) [Example 80, 4-(chroman-3-ylmethyl)-6-hydroxy-5-oxo-4,5-dihydrothieno[3,2-b]pyridine-7-carboxylic acid], 2250 to 10000 nM; in that of `Cc1cc(Cn2c(=O)c(O)c(C(=O)O)c3sccc32)no1` [Example 82, 6-hydroxy-4-[(5-methylisoxazol-3-yl)methyl]-5-oxo-4,5-dihydrothieno[3,2-b]pyridine-7-carboxylic acid], 750 to 2250 nM. Compound `COc1ccc(Cn2c(=O)c(O)c(C(=O)O)c3sccc32)cc1NC(C)=O` [Example 89, 4-(3-acetamido-4-methoxybenzyl)-6-hydroxy-5-oxo-4,5-dihydrothieno[3,2-b]pyridine-7-carboxylic acid] gave an IC50 of 250 to 750 nM. In the case of `O=C(O)c1c(O)c(=O)n(Cc2nnc(-c3ccccc3)s2)c2ccsc12` [Example 93, 6-hydroxy-5-oxo-4-[(5-phenyl-1,3,4-thiadiazol-2-yl)methyl]-4,5-dihydrothieno[3,2-b]pyridine-7-carboxylic acid] it was below 200 nM; in that of `Cc1nnc(Cn2c(=O)c(O)c(C(=O)O)c3sccc32)s1` [Example 94, 6-hydroxy-4-[(5-methyl-1,3,4-thiadiazol-2-yl)methyl]-5-oxo-4,5-dihydrothieno[3,2-b]pyridine-7-carboxylic acid], 250 to 750 nM; in that of `Cc1ncc(Cn2c(=O)c(O)c(C(=O)O)c3sccc32)o1` [Example 95, 6-hydroxy-4-[(2-methyloxazol-5-yl)methyl]-5-oxo-4,5-dihydrothieno[3,2-b]pyridine-7-carboxylic acid], 250 to 750 nM. In the case of `O=C(O)c1c(O)c(=O)n(Cc2cn3ccccc3n2)c2ccsc12` [Example 102, 6-hydroxy-4-(imidazo[1,2-a]pyridin-2-ylmethyl)-5-oxo-4,5-dihydrothieno[3,2-b]pyridine-7-carboxylic acid] it was 750 to 2250 nM; in that of `O=C(O)c1c(O)c(=O)n(Cc2cncc(-c3ccccc3)c2)c2ccsc12` [Example 103, 6-hydroxy-5-oxo-4-[(5-phenylpyridin-3-yl)methyl]-4,5-dihydrothieno[3,2-b]pyridine-7-carboxylic acid], 250 to 750 nM; in that of `O=C(O)c1c(O)c(=O)n(Cc2cncc3ccccc23)c2ccsc12` [Example 104, 6-hydroxy-4-(isoquinolin-4-ylmethyl)-5-oxo-4,5-dihydrothieno[3,2-b]pyridine-7-carboxylic acid], 2250 to 10000 nM. With `O=C(O)c1c(O)c(=O)n(Cc2cnn(-c3ccc(Cl)cc3)c2)c2ccsc12` [Example 105, 4-{[1-(4-chlorophenyl)-1H-pyrazol-4-yl]methyl}-6-hydroxy-5-oxo-4,5-dihydrothieno[3,2-b]pyridine-7-carboxylic acid], the IC50 is 250 to 750 nM.

For `COc1ccccc1-n1cc(Cn2c(=O)c(O)c(C(=O)O)c3sccc32)cn1` [Example 106, 6-hydroxy-4-{[1-(2-methoxyphenyl)-1H-pyrazol-4-yl]methyl}-5-oxo-4,5-dihydrothieno[3,2-b]pyridine-7-carboxylic acid], the IC50 is below 200 nM.

Regarding `O=C(O)c1c(O)c(=O)n(Cc2cnn(-c3ccccc3[N+](=O)[O-])c2)c2ccsc12` [Example 107, 6-hydroxy-4-{[1-(2-nitrophenyl)-1H-pyrazol-4-yl]methyl}-5-oxo-4,5-dihydrothieno[3,2-b]pyridine-7-carboxylic acid], the half-inhibitory concentration (IC50) is below 200 nM. Next, `CS(=O)(=O)Nc1ccccc1-n1cc(Cn2c(=O)c(O)c(C(=O)O)c3sccc32)cn1` [Example 108, 6-hydroxy-4-{[1-(2-(methylsulfonamido)phenyl]-1H-pyrazol-4-yl}methyl)-5-oxo-4,5-dihydrothieno[3,2-b]pyridine-7-carboxylic acid]: 250 to 750 nM; `CC(=O)Nc1ccccc1-n1cc(Cn2c(=O)c(O)c(C(=O)O)c3sccc32)cn1` [Example 109, 4-{[1-(2-acetamidophenyl)-1H-pyrazol-4-yl]methyl}-6-hydroxy-5-oxo-4,5-dihydrothieno[3,2-b]pyridine-7-carboxylic acid]: 750 to 2250 nM; `N#Cc1ccc(-n2cc(Cn3c(=O)c(O)c(C(=O)O)c4sccc43)cn2)cc1` [Example 110, 4-{[1-(4-cyanophenyl)-1H-pyrazol-4-yl]methyl}-6-hydroxy-5-oxo-4,5-dihydrothieno[3,2-b]pyridine-7-carboxylic acid]: below 200 nM.

`O=C(O)c1c(O)c(=O)n(Cc2cnn(-c3ccncc3)c2)c2ccsc12` [Example 112, 6-hydroxy-5-oxo-4-{[1-(pyridin-4-yl)-1H-pyrazol-4-yl]methyl}-4,5-dihydrothieno[3,2-b]pyridine-7-carboxylic acid] yielded an IC50 of 250 to 750 nM. `Nc1ccc(-n2cc(Cn3c(=O)c(O)c(C(=O)O)c4sccc43)cn2)cc1` [Example 118, 4-{[1-(4-aminophenyl)-1H-pyrazol-4-yl]methyl}-6-hydroxy-5-oxo-4,5-dihydrothieno[3,2-b]pyridine-7-carboxylic acid] gave an IC50 below 200 nM. Turning to `O=C(O)c1c(O)c(=O)n(Cc2cnn(Cc3cncs3)c2)c2ccsc12` [Example 123, 6-hydroxy-5-oxo-4-{[1-(thiazol-5-ylmethyl)-1H-pyrazol-4-yl]methyl}-4,5-dihydrothieno[3,2-b]pyridine-7-carboxylic acid], the IC50 was below 200 nM. In the case of `Cn1nccc1Cn1cc(Cn2c(=O)c(O)c(C(=O)O)c3sccc32)cn1` [Example 124, 6-hydroxy-4-({1-[(1-methyl-1H-pyrazol-5-yl)methyl]-1H-pyrazol-4-yl}methyl)-5-oxo-4,5-dihydrothieno[3,2-b]pyridine-7-carboxylic acid] it was below 200 nM; in that of `COc1cc(Cn2cc(Cn3c(=O)c(O)c(C(=O)O)c4sccc43)cn2)ccn1` [Example 129, 6-hydroxy-4-({1-[(2-methoxypyridin-4-yl)methyl]-1H-pyrazol-4-yl}methyl)-5-oxo-4,5-dihydrothieno[3,2-b]pyridine-7-carboxylic acid], below 200 nM; in that of `Cc1nn(C)cc1Cn1cc(Cn2c(=O)c(O)c(C(=O)O)c3sccc32)cn1` [Example 134, 4-({1-[(1,3-dimethyl-1H-pyrazol-4-yl)methyl]-1H-pyrazol-4-yl}methyl)-6-hydroxy-5-oxo-4,5-dihydrothieno[3,2-b]pyridine-7-carboxylic acid], below 200 nM.
